Patent publication US8748481B2, “Method for treating gastrointestinal disorder” (Sucampo AG, priority 2004, dated 2014)

Assays:
Assay type in all cases: in vivo, human
[1] = tested on: different aged patients with occasional constipation; test: Weekly number of spontaneous bowel movements by age (Example 5); conditions: 48 μg/day, 4 weeks; all aged groups, even 65 years and older
Protocol: (§1) Multi-center, parallel-group, double-blind, placebo-controlled study was performed to compare the effect of Compound A on improving weekly number of spontaneous bowel movements among different aged patients with occasional constipation. The patients were received 48 μg (total daily dose) of Compound A (24 μg of Compound A b.i.d) for 4 weeks. The bowel movements in the patient were recorded during the treatment.

[2] = Serum electrolyte balance, open-label 24/48-week safety study (Example 1)
Protocol: Multi-center, open-label study was performed to evaluate the safety of 48 μg of Compound A (13,14-dihydro-15-keto-16,16-difluoro-PGE1) (24 μg of Compound A b.i.d) when administered daily for 24 weeks (6 months) or 48 weeks (12 months) to subjects with occasional constipation. […] After 14-day drug-free washout period, they received 48 μg of Compound A (24 μg of Compound A b.i.d) orally for 48 weeks.
Sodium, potassium, chloride, calcium, magnesium and phosphorus ion concentrations in serum of patients (n=299) were measured before, and at 6, 12, 18, 24, 30, 36, 48 and 50 weeks after the start of the Compound A treatment.
The laboratory standard values for the panel of electrolytes were taken from the normal reference ranges for the central laboratory.

[3] = tested on: male and female patients with occasional constipation; test: Weekly number of spontaneous bowel movements in male vs. female patients (Example 4); conditions: 48 μg/day, 4 weeks
Protocol: as §1, with “the” for “improving”, “in male and female patients. Male and female” for “among different aged”, “constipation” for “constipation. The patients”

[4] = tested on: patients with chronic constipation; test: Randomized withdrawal study, post-treatment response after 4 weeks of active treatment (Example 2)
Protocol: Multi-center, double-blind, randomized, placebo-controlled study was performed to assess post-treatment response, in a portion of the total population, after four (4) weeks of active treatment (48 μg Compound A total daily dose) and three (3) weeks randomized withdrawal period. […] After 14-day drug-free washout period, they received orally 48 μg (total daily dose) of Compound A for 28 days followed by either 0 or 48 μg (total daily dose) of Compound A for 21 days.
In this study, the following parameters were evaluated. • 1) Bowel movements per week • 2) Abdominal bloating • 3) Abdominal discomfort • 4) Severity of Constipation • 5) Straining • 6) Consistency
Each parameter (Abdominal bloating, Abdominal discomfort, Severity of Constipation or Straining) was evaluated on the scale of: 0 (absent), 1 (mild), 2 (moderate), 3 (severe) and 4 (very severe) in the patients. Consistency was evaluated on a scale of: 0 (very loose), 1 (loose), 2 (normal), 3 (hard) and 4 (very hard, little balls)

[5] = Week 50 after start of 48-week treatment
[6] = 48 μg/day for 28 days, then 3 weeks withdrawal

For CCCCC(F)(F)C(=O)CCC1C(O)CC(=O)C1CCCCCCC(=O)O (stereo not shown) [Compound A, 13,14-dihydro-15-keto-16,16-difluoro-PGE1], the “Effect on weekly number of spontaneous bowel movements by age (FIG. 14)” value [1] was “significantly effective”, the “Effect on sodium, potassium, chloride, calcium, magnesium and phosphorus ion concentration in serum” value ([2]; 48 μg/day, long-term administration up to 48 weeks) was “no effect” and the “Mean serum Calcium” value ([2]; Week 0 (before treatment)) was 9.61 mg/dL. For the same molecule, the “Mean serum Chloride” value ([2]; Week 0 (before treatment)) was 103.08 mmol/L, the “Mean serum Magnesium” value ([2]; Week 0 (before treatment)) was 2.18 mg/dL and the “Mean serum Phosphorus” value ([2]; Week 0 (before treatment)) was 3.65 mg/dL. For the same molecule, the “Mean serum Potassium” value ([2]; Week 0 (before treatment)) was 4.28 mmol/L, the “Mean serum Sodium” value ([2]; Week 0 (before treatment)) was 141.00 mmol/L and the “Mean serum Calcium” value ([2]; Week 6, 48 μg/day oral) was 9.90 mg/dL. The “Mean serum Chloride” value ([2]; Week 6, 48 μg/day oral) was 103.00 mmol/L, the “Mean serum Magnesium” value ([2]; Week 6, 48 μg/day oral) was 2.23 mg/dL and the “Mean serum Phosphorus” value ([2]; Week 6, 48 μg/day oral) was 3.20 mg/dL. The “Mean serum Potassium” value ([2]; Week 6, 48 μg/day oral) was 4.28 mmol/L, the “Mean serum Sodium” value ([2]; Week 6, 48 μg/day oral) was 142.25 mmol/L and the “Mean serum Calcium” value ([2]; Week 12, 48 μg/day oral) was 9.71 mg/dL. The “Mean serum Chloride” value ([2]; Week 12, 48 μg/day oral) was 103.08 mmol/L, the “Mean serum Magnesium” value ([2]; Week 12, 48 μg/day oral) was 2.24 mg/dL and the “Mean serum Phosphorus” value ([2]; Week 12, 48 μg/day oral) was 3.57 mg/dL. For the same molecule, the “Mean serum Potassium” value ([2]; Week 12, 48 μg/day oral) was 4.20 mmol/L, the “Mean serum Sodium” value ([2]; Week 12, 48 μg/day oral) was 139.78 mmol/L and the “Mean serum Calcium” value ([2]; Week 18, 48 μg/day oral) was 9.30 mg/dL. The “Mean serum Chloride” value ([2]; Week 18, 48 μg/day oral) was 105.50 mmol/L, the “Mean serum Magnesium” value ([2]; Week 18, 48 μg/day oral) was 2.35 mg/dL and the “Mean serum Phosphorus” value ([2]; Week 18, 48 μg/day oral) was 3.55 mg/dL. The “Mean serum Potassium” value ([2]; Week 18, 48 μg/day oral) was 4.40 mmol/L, the “Mean serum Sodium” value ([2]; Week 18, 48 μg/day oral) was 141.50 mmol/L and the “Mean serum Calcium” value ([2]; Week 24, 48 μg/day oral) was 9.77 mg/dL. The “Mean serum Chloride” value ([2]; Week 24, 48 μg/day oral) was 102.56 mmol/L, the “Mean serum Magnesium” value ([2]; Week 24, 48 μg/day oral) was 2.21 mg/dL and the “Mean serum Phosphorus” value ([2]; Week 24, 48 μg/day oral) was 3.61 mg/dL. For the same molecule, the “Mean serum Potassium” value ([2]; Week 24, 48 μg/day oral) was 4.19 mmol/L, the “Mean serum Sodium” value ([2]; Week 24, 48 μg/day oral) was 139.21 mmol/L and the “Mean serum Calcium” value ([2]; Week 30, 48 μg/day oral) was 9.10 mg/dL. The “Mean serum Chloride” value ([2]; Week 30, 48 μg/day oral) was 100.00 mmol/L, the “Mean serum Magnesium” value ([2]; Week 30, 48 μg/day oral) was 2.30 mg/dL and the “Mean serum Phosphorus” value ([2]; Week 30, 48 μg/day oral) was 2.50 mg/dL. The “Mean serum Potassium” value ([2]; Week 30, 48 μg/day oral) was 4.30 mmol/L, the “Mean serum Sodium” value ([2]; Week 30, 48 μg/day oral) was 136.00 mmol/L and the “Mean serum Calcium” value ([2]; Week 36, 48 μg/day oral) was 9.67 mg/dL. For the same molecule, the “Mean serum Chloride” value ([2]; Week 36, 48 μg/day oral) was 102.51 mmol/L, the “Mean serum Magnesium” value ([2]; Week 36, 48 μg/day oral) was 2.19 mg/dL and the “Mean serum Phosphorus” value ([2]; Week 36, 48 μg/day oral) was 3.58 mg/dL. The “Mean serum Potassium” value ([2]; Week 36, 48 μg/day oral) was 4.18 mmol/L, the “Mean serum Sodium” value ([2]; Week 36, 48 μg/day oral) was 138.94 mmol/L and the “Mean serum Calcium” value ([2]; Week 48, 48 μg/day oral) was 9.66 mg/dL. For the same molecule, the “Mean serum Chloride” value ([2]; Week 48, 48 μg/day oral) was 102.88 mmol/L, the “Mean serum Magnesium” value ([2]; Week 48, 48 μg/day oral) was 2.14 mg/dL and the “Mean serum Phosphorus” value ([2]; Week 48, 48 μg/day oral) was 3.50 mg/dL. For the same molecule, the “Mean serum Potassium” value ([2]; Week 48, 48 μg/day oral) was 4.20 mmol/L, the “Mean serum Sodium” value ([2]; Week 48, 48 μg/day oral) was 139.59 mmol/L and the “Mean serum Calcium” value [2, 5] was 9.47 mg/dL. For the same molecule, the “Mean serum Chloride” value [2, 5] was 102.67 mmol/L, the “Mean serum Magnesium” value [2, 5] was 2.31 mg/dL and the “Mean serum Phosphorus” value [2, 5] was 3.54 mg/dL. The “Mean serum Potassium” value [2, 5] was 4.49 mmol/L, the “Mean serum Sodium” value [2, 5] was 139.11 mmol/L and the “Difference between the effects in male and female patients” value [3] was “no significant difference”. The “Effect on weekly number of spontaneous bowel movements (FIG. 13)” value ([3]; both male and female patients) was “significantly effective”, the “Quality of life of the patients” value ([4]; 48 μg/day) was “improved” and the “Efficacy after stopping the treatment (FIGS. 7 to 12)” value [4, 6] was “sustained”. For the same molecule, the “Rebound effect after discontinuation of treatment (FIGS. 7 to 12)” value [4, 6] was “substantially no rebound effect”.
